This is an account of results in US7468255B2, “Method for assaying for natural killer, cytotoxic T-lymphocyte and neutrophil-mediated killing of target cells using real-time microelectronic cell sensing technology” (ACEA Biosciences, priority 2002, dated 2008).

Series [1] has as its system various cell types (listed in Table 1). Description: RT-CES profiling of dynamic cell responses to anti-cancer drugs. The series is classed as cell-based. To be noted: for cell index curve pattern: cell lines of Table 1. As to the method: FIGS. 10A and B show the responses of various cell types (listed in Table 1) to olomoucine treatment as monitored using a cell-substrate imepdnace monitoring system of the presnet invention. The cellular responses were continuously monitored at 15 or 30 or 60 minutes time interval before and after treatment with olomoucine. […] Take the treatment of olomoucine at 100 uM as an example. […] The “near-constant” cell index curves were also observed for cells treated with roscovitine, which is another compound causing cell cycle arrest. The cell index curves shown in FIGS. 10A and 10B are strikingly different from the cell index curves shown in FIGS. 9A and 9B, and FIGS. 11A and 11B, where compounds follow different mechanism of compound action.
The cellular responses were continuously monitored at 15 or 30 or 60 minutes time interval before and after treatment with doxorubicin. […] Take the treatment of doxoorubincin at 3.13 uM as an example. For most of cell types tested, initially after the treatment, cell index increased with time in similar way to the cell index from DMSO control wells. After 10-20 hrs, depending on cell type, the cell index reached a peak and started decreasing with time. From that time on, the cell index monotonically decreases. […] Both Doxorubicin and 5-Fluorouacil act on cells through effects on DNA replication or topology.
The cellular responses were continuously monitored at 15 or 30 or 60 minutes time interval before and after treatment with paclitaxel. […] Take the treatment of palitaxel at 0.78-12.5 nM range as examples. […] For one particular cell index curve, after the cell index reached a minimum, it then reversed its decreasing trend and started to increase. […] All these compounds—i.e., paclitaxel, vinblastin and colcemid, are so called mitotic poisons and follow similar mechanism of drug action. For example, both vinblastin and paclitaxel act on microtubule dynamics within a cell.
In this study, we used the RT-CES system to dynamically monitor cancer cell responses to chemotherapeutic compounds with characterized mechanisms, and to profile the specific cell response patterns. Thirteen cancer cell lines including cancers of breast, prostate, lung, colon, ovary, kidney, fibroblast, and central nervous system were tested (Table 1). Each cancer cell type was treated with 11 chemotherapeutic compounds, classified as DNA damaging agents, protein kinase inhibitors, anti-mitotic drugs, cell cycle specific inhibitors, protein synthesis inhibitors plus a compound of unknown category (Table 2). Dynamic and dose dependent cell-compound interaction patterns were characterized and summarized for all the tested cell lines and compounds. The profiles for three drugs, doxorubicin, olomoucine and paclitaxel against a panel of 12 different cell lines are presented in FIGS. 9, 10 and 11, respectively. In addition, we characterized the biological effect of these compounds on cells by monitoring cell cycle progression, cell viability and morphological status of the cells in an attempt to correlate specific cellular response to the shape of the cell index trace (FIGS. 12, 13 and 14). Furthermore we calculated the time-dependent IC-50 values for each compound against the various cell lines (FIG. 15) and developed an algorithm to calculate Cell Change Index to profile the dynamic cell response of the different chemotherapeutic agents across the different cell lines. Cell Change Index was calculated for the dynamic RT-CES responses of different cell lines to different chemotherapeutic agents using the definitions described above. Based on the time-dependent values of CCI, each CCI value region across the time scale is represented by black-white shading-based coding. […]

Series [2] has as its system A549 cells. Description: Flow cytometry cell cycle analysis of A549 cells. The conditions noted are these: 100 μM. It is filed as cell-based, Human.
Series [3] relates to A549 cells. It is filed as cell-based. To be noted: for effect of inhibitor alone on A549 baseline: A549 target cells without NK cells. How it is done: (§1) In order to observe the kinetics of drug interaction with target cells, A549 non-small lung cancer cells were seeded in ACEA 96× e-plate™ and continuously monitored until the cells reached the log growth phase at which point different concentrations of paclitaxel were added to the cells at the indicated final concentration. […] Remarkably, the cells recover from the initial cytotoxic effect of the drug and start to re-proliferate. While it remains to be determined if this phenomenon is due to metabolism and inactivation of paclitaxel or due to the emergence of paclitaxel-resistant subpopulation, this experiment clearly exemplifies the tremendous advantage of real-time measurement which is offered by the RT-CES system and allows the user to the opportunity to observe and assess the entire history of drug interaction with the target cells which provides further information in addition to cell viability or cytotoxicity. The phenomenon observed in FIG. 20A would've been easily missed by traditional single-point assays such as MTT.
Yet another major advantage of using the RT-CES system to continually monitor the interaction of drugs with target cells is that the user can obtain insight into the mechanism of action of the drug of interest. […] The cells were treated with either DMSO as the vehicle control or with 100 μM Olomoucine which is a CDK inhibitor and induces cell cycle arrest either at G1→S transition or at the G2→M transition, depending on the cell line. […] The control cells treated with DMSO continue to proliferate until they reach confluence, at which time they are contact inhibited and the Cell Index recording levels off. […]. Taken together, using the RT-CES system to dynamically monitor drug interaction with the target cells offers the user the opportunity to understand the mechanism of drug action and its mode of interaction with the target cell.

In another series the test system is Cos-7 cells. Kind of series: RT-CES monitoring of morphological changes in Cos-7 cells. To be noted: serum starved Cos-7 cells; 50 nanograms/mL. The series is classed as cell-based. As to the method: Cells were seeded in wells of a 16 well monitoring device (16× E-Plate) of the present invention that engaged a device station of a cell-substate monitoring system. The device station was positioned in an incubator held at 37 degrees C. and 5% CO2. The cells were serum starved for 8 hours and then stimulated with 50 nanograms/mL of EGF. […] Impedance was monitored at 3 minute intervals for 2 hours and then at 1 hour intervals for 14 hours. The cell index was calculated by the system and plotted as a function of time. […] The arrow indicates the point of EGF addition.

For series [4], the system named is A549 cells. Description: Annexin V staining of A549 cells. The series is classed as cell-based, Human. The conditions noted are these: 12.5 nM for 20 hours. As to the method: FIG. 20. Dynamic monitoring of drug interaction with target cells using a cell-substrate imepdnace monitoring system of the presnet invention. (A) A549 cells were seeded in a device of present invention at a density of 10,000 cells per well and the cells were continuously monitored up to 24 hours at which point paclitaxel was added at the indicated final concentrations. (B) Annexin V staining of A549 cells treated with DMSO or 12.5 nM paclitaxel for 20 hours.
as §1, with “The phenomenon observed in FIG. 20A would've been easily missed by traditional single-point assays such as MTT.” left out

The next series has as its system H460 cells. Kind of series: RT-CES time-dependent cell index of drug-treated H460 cells. The series is classed as cell-based, human.
Series [5] has as its system NK-92-mediated cytolysis of A549 cells. Kind of series: Inhibition of NK-mediated cytolysis of target cells by signaling pathway inhibitors (RT-CES). It is filed as cell-based, human. To be noted: NK-92 pre-incubated with inhibitor, E/T 16:1. How it is done: FIG. 31. Specificity of NK-92 mediated cytolysis of target cells. (A) A549 cells were seeded in the wells of E-plates. Twenty four hours after seeding NK-cells at a density of 16:1 (E/T ratio) were pre-incubated with the different concentrations of the MEK inhibitor PD 98059 for thirty minutes and then added to A549 cells at the indicated time point (arrow). The viability of A549 cells were continually monitored using the RT-CES system. (B) The extent of NK-92 mediated cytolystic activity in the presence of MEK inhibitor was calculated at the indicated times post-NK addition as described in materials and methods section. (C) The effect of P13 Kinase inhibitor Wortmannin on NK-92 mediated cytolysis of A549 cells. […] (D) Percent cytolytic activity of NK-92 cells was calculated at the end of the experiment described in (C).
In this example, a microelectronic sensor-based platform, the RT-CES (real time electronic sensing) system, is introduced for label free assessment of natural killer (NK) cell-mediated cytolytic activity. The RT-CES system was used to dynamically and quantitatively monitor NK-mediated cytolysis of 9 different target cell lines, including cancer cell lines commonly used in laboratories. […] Cell growth was dynamically monitored using the RT-CES system for a period of 24-34 hours, depending on the experiment until they reached log growth phase and formed a monolayer. […]

Description for H460 cells: The device was positioned on a device station that was located in an incubator maintaining conditions of 37 degrees C. and 5% CO2. […] The cell-substrate impedance monitoring system calculated the cell index at each time point monitored and plotted the cell index as a function of time.
The device was positioned on a device station that was located in an incubator maintaining conditions of 37 degrees C. and 5% CO2.

Turning to `CC[C@]1(O)C[C@@H]2CN(CCc3c([nH]c4ccccc34)[C@@](C(=O)OC)(c3cc4c(cc3OC)N(C)[C@H]3[C@@](O)(C(=O)OC)[C@H](OC(C)=O)[C@]5(CC)C=CCN6CC[C@]43[C@@H]65)C2)C1` [vinblastin], in series [1], the “cell index curve pattern” value is “going down and then going up”. `Cn1cnc2c(NCc3ccccc3)nc(NCCO)nc21` [olomoucine]: the “cell cycle analysis by flow cytometry” value in the series with A549 cells [2] is reported as “cell cycle arrest at the G2→M transition”. The “Cell Index trace” value in the series with A549 cells [3] (exponentially growing A549 cells, 100 μM) is “level off and remain in a steady state”. In series [1] (100 uM, significant number of cell types tested, for some length of time (10, 20 or 30 hrs)), the cell index response entry is “near-constant cell index”. Regarding epidermal growth factor [EGF], the “cell index response (morphological change)” value in the series with Cos-7 cells is “initial jump in cell index”.

As to `CC[C@H](CO)Nc1nc(NCc2ccccc2)c2ncn(C(C)C)c2n1` [roscovitine], the “cell index curve pattern” value in series [1] is “near-constant”.

As to `CC(=O)O[C@H]1C(=O)[C@@]2(C)[C@H]([C@H](OC(=O)c3ccccc3)[C@]3(O)C[C@H](OC(=O)[C@H](O)[C@@H](NC(=O)c4ccccc4)c4ccccc4)C(C)=C1C3(C)C)[C@]1(OC(C)=O)CO[C@@H]1C[C@@H]2O` [paclitaxel], the “effect on A549 cell index” value in the series with A549 cells [3] (human) is given as “initially induces a cytotoxic effect”. In addition, the “Annexin V staining” value in the series with A549 cells [4] is “cell death”. Also, in series [1] (0.78-12.5 nM), the “duration of initial decrease in cell index” value lay in the range of 15 to 20 h. Moreover, in series [1] (nM concentration, varies between cell types), the “duration of initial cell index decrease before cell index increase” value was “about 15 hrs”. The “time over which cell index exhibited a near-constant value” with H460 cells (33 nM) was “about 15 hours”. In the series with H460 cells (concentration between 67 nM and 500 nM), the “cell index change after compound addition” value was “gradual decrease in cell index”. Consider `O=c1[nH]cc(F)c(=O)[nH]1` [5-Fluorouracil], for which the “cell index curve pattern” value in series [1] was “going up first and then going down”.

As for `COc1cccc(-c2cc(=O)c3ccccc3o2)c1N` [PD98059], the “effect of inhibitor alone on A549 baseline” value in the series with A549 cells [3] was “minimal effect on the baseline”. For the same compound, the “inhibition of NK-92-mediated cytolysis of A549 cells” value in series [5] was “dose-dependently inhibited”. Regarding `COc1cccc2c1C(=O)c1c(O)c3c(c(O)c1C2=O)C[C@@](O)(C(=O)CO)C[C@@H]3O[C@H]1C[C@H](N)[C@H](O)[C@H](C)O1` [doxorubicin], the “time after treatment at which cell index reached a peak and started decreasing” value in series [1] (3.13 uM, most cell types tested, depending on cell type) was in the range of 10 to 20 h. On to `COC[C@H]1OC(=O)c2coc3c2[C@@]1(C)C1=C(C3=O)[C@@H]2CCC(=O)[C@@]2(C)C[C@H]1OC(C)=O` [Wortmannin], for which, in the series on A549 cells [3], the “effect of inhibitor alone on A549 baseline” value is “minimal effect on the baseline”. Besides, the “inhibition of NK-92-mediated cytolysis of A549 cells” value in series [5] is reported as “dose-dependently inhibited”. Turning to `CN[C@H]1CCc2cc(OC)c(OC)c(OC)c2-c2ccc(OC)c(=O)cc21` [colcemid], the “cell index curve pattern” value in series [1] was “going down and then going up”.
